According to patent US20260184710A1, “CASITAS B-LINEAGE LYMPHOMA PROTOONCOGENE B (CBL-B) DEGRADING COMPOUNDS AND ASSOCIATED METHODS OF USE” (Arvinas Operations, Inc., priority 2022, published 2026):

Biological target: T1, Cbl-b (Homo sapiens, UniProt Q13191)
T1 construct: Cbl-b-HiBit KI Jurkat Cells were purchased from Promega; host or cells: Cbl-b-HiBiT knock-in Jurkat cells
Test: Cbl-b Degradation Method B (Nano-Glo HiBiT lytic detection)
Assay type: cell-based
Conditions: Cbl-b-HiBit KI Jurkat Cells, incubated at least 6-24 hours; for DC50: half maximal degradation, read-out: Cbl-b Degredation Method B IC50; for Dmax: maximum degradation observed, read-out: Cbl-b Degredation Method B Dmax (%)
Summary of the method: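 An 11-point, 3-fold compound dilution was applied for 6-24 hours to Jurkat cells carrying HiBiT-tagged endogenous Cbl-b. Lytic HiBiT luminescence quantified residual protein. Outputs are DC50 and Dmax relative to DMSO control.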

T1 sequence (Q13191 whole entry): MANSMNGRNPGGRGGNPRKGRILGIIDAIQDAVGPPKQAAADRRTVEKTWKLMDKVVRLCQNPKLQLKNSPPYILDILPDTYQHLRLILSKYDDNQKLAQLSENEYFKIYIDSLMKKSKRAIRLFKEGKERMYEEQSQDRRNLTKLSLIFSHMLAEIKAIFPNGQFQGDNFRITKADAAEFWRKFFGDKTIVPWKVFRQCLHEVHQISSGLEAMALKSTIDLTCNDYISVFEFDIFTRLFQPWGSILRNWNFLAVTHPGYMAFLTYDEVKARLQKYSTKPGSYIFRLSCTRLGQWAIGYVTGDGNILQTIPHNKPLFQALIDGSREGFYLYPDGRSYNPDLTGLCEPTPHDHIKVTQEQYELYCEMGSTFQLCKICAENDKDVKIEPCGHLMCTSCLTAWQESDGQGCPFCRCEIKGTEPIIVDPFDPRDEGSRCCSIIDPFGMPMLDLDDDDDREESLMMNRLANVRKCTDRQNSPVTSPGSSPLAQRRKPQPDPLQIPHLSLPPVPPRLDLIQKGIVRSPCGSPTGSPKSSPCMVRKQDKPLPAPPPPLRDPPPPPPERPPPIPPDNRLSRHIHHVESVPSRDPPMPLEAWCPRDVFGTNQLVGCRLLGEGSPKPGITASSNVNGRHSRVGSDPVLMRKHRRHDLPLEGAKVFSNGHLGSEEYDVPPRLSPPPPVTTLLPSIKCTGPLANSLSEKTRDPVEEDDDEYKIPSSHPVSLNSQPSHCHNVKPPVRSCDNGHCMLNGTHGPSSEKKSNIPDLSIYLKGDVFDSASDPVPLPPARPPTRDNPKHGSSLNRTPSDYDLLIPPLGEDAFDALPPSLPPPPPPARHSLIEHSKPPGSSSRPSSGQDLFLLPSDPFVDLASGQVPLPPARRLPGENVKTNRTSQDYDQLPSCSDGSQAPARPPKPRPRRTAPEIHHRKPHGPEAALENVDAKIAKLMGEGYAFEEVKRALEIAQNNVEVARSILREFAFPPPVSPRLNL

Row | Compound | DC50 | Dmax
1 | Cn1cnnc1CC1(c2cccc(-n3cc4c(C(F)(F)F)cc(CN5CCC[C@H](CN6CCC(OC7CCN(c8ccc9c(c8F)CN(C8CCC(=O)NC8=O)C9=O)CC7)CC6)C5)cc4n3)c2)COC1 (stereo partly drawn) [Example 259, 3-(4-fluoro-5-{4-[(1-{[(3R)-1-{[2-(3-{3-[(4-methyl-4H-1,2,4-triazol-3-yl)methyl]oxetan-3-yl}phenyl)-4-(trifluoromethyl)-2H-indazol-6-yl]methyl}piperidin-3-yl]methyl}piperidin-4-yl)oxy]piperidin-1-yl}-1-oxo-2,3-dihydro-1H-isoindol-2-yl)piperidine-2,6-dione] | > 500 nM | 
2 | Cn1cnnc1CC1(c2cccc(-n3cc4ccc(N5CC6(CCN(CC7CCN(c8ccc9c(c8Cl)CN(C8CCC(=O)NC8=O)C9=O)CC7)CC6)C5)cc4n3)c2)COC1 (centres unmarked) [Example 260, 3-{4-chloro-5-[4-({2-[2-(3-{3-[(4-methyl-4H-1,2,4-triazol-3-yl)methyl]oxetan-3-yl}phenyl)-2H-indazol-6-yl]-2,7-diazaspiro[3.5]nonan-7-yl}methyl)piperidin-1-yl]-1-oxo-2,3-dihydro-1H-isoindol-2-yl}piperidine-2,6-dione] | > 500 nM | 
3 | Cc1cc(N2CCC(CN3CCC4(CC3)CN(c3ccc5cn(-c6cccc(C7(Cc8nncn8C)COC7)c6)nc5c3)C4)CC2)c(F)c2c1C(=O)N(C1CCC(=O)NC1=O)C2 (centres unmarked) [Example 261, 3-{4-fluoro-7-methyl-5-[4-({2-[2-(3-{3-[(4-methyl-4H-1,2,4-triazol-3-yl)methyl]oxetan-3-yl}phenyl)-2H-indazol-6-yl]-2,7-diazaspiro[3.5]nonan-7-yl}methyl)piperidin-1-yl]-1-oxo-2,3-dihydro-1H-isoindol-2-yl}piperidine-2,6-dione] | > 500 nM | 
4 | Cn1cnnc1C[C@]1(c2cccc(-n3cc4c(C(F)(F)F)cc(N5CC6(CCN(CC7CCN(c8ccc9c(c8Cl)CN(C8CCC(=O)NC8=O)C9=O)CC7)CC6)C5)cc4n3)c2)C[C@H](C#N)C1 (some centres unmarked) [Example 262, (1r,3r)-3-(3-{6-[7-({1-[4-chloro-2-(2,6-dioxopiperidin-3-yl)-1-oxo-2,3-dihydro-1H-isoindol-5-yl]piperidin-4-yl}methyl)-2,7-diazaspiro[3.5]nonan-2-yl]-4-(trifluoromethyl)-2H-indazol-2-yl}phenyl)-3-[(4-methyl-4H-1,2,4-triazol-3-yl)methyl]cyclobutane-1-carbonitrile] | 5 to 50 nM | < 35%
5 | CC(C)n1c(=O)n(C2CCC(=O)NC2=O)c2ccc(N3CCC(O[C@H]4CC[C@@H](CN5CCN(C[C@H]6CCCN(Cc7cc8c(c(C(F)(F)F)c7)CN(c7cccc(C9(Cc%10nncn%10C)COC9)c7)C8=O)C6)C(C)(C)C5)CC4)CC3)cc21 (stereo partly drawn) [Example 263, 3-[2-oxo-3-(propan-2-yl)-5-(4-{[(1r,4r)-4-[(3,3-dimethyl-4-{[(3S)-1-{[2-(3-{3-[(4-methyl-4H-1,2,4-triazol-3-yl)methyl]oxetan-3-yl}phenyl)-3-oxo-7-(trifluoromethyl)-2,3-dihydro-1H-isoindol-5-yl]methyl}piperidin-3-yl]methyl}piperazin-1-yl)methyl]cyclohexyl]oxy}piperidin-1-yl)-2,3-dihydro-1H-1,3-benzodiazol-1-yl]piperidine-2,6-dione] | < 5 nM | > 70%
6 | Cn1cnnc1CC1(c2cccc(N3Cc4c(cc(CN5CCC[C@H](CN6CCN(C[C@H]7CC[C@@H](OC8CCN(c9ccc%10c(c9F)CN(C9CCC(=O)NC9=O)C%10=O)CC8)CC7)CC6(C)C)C5)cc4C(F)(F)F)C3=O)c2)CC1 (stereo partly drawn) [Example 264, 3-[4-fluoro-1-oxo-5-(4-{[(1r,4r)-4-[(3,3-dimethyl-4-{[(3S)-1-{[2-(3-{1-[(4-methyl-4H-1,2,4-triazol-3-yl)methyl]cyclopropyl}phenyl)-3-oxo-7-(trifluoromethyl)-2,3-dihydro-1H-isoindol-5-yl]methyl}piperidin-3-yl]methyl}piperazin-1-yl)methyl]cyclohexyl]oxy}piperidin-1-yl)-2,3-dihydro-1H-isoindol-2-yl]piperidine-2,6-dione] | < 5 nM | > 70%
7 | COc1c(N2CCC(C(=O)N3CCC4(CC3)CN(c3cc5c(c(C(F)(F)F)c3)CN(c3cccc(C6(Cc7nncn7C)COC6)c3)C5=O)C4)CC2)ccc2c1CN(C1CCC(=O)NC1=O)C2=O (centres unmarked) [Example 265, 3-[4-methoxy-5-(4-{2-[2-(3-{3-[(4-methyl-4H-1,2,4-triazol-3-yl)methyl]oxetan-3-yl}phenyl)-3-oxo-7-(trifluoromethyl)-2,3-dihydro-1H-isoindol-5-yl]-2,7-diazaspiro[3.5]nonane-7-carbonyl}piperidin-1-yl)-1-oxo-2,3-dihydro-1H-isoindol-2-yl]piperidine-2,6-dione] | 5 to 50 nM | < 35%
8 | CC(C)n1c(=O)n(C2CCC(=O)NC2=O)c2ccc(N3CCC(O[C@H]4CC[C@@H](CN5CCN(C[C@H]6CCCN(Cc7cc(C(F)(F)F)c8cn(-c9cccc(C%10(Cc%11nncn%11C)COC%10)c9)nc8c7)C6)C(C)(C)C5)CC4)CC3)cc21 (stereo partly drawn) [Example 266, 3-[2-oxo-3-(propan-2-yl)-5-(4-{[(1r,4r)-4-[(3,3-dimethyl-4-{[(3S)-1-{[2-(3-{3-[(4-methyl-4H-1,2,4-triazol-3-yl)methyl]oxetan-3-yl}phenyl)-4-(trifluoromethyl)-2H-indazol-6-yl]methyl}piperidin-3-yl]methyl}piperazin-1-yl)methyl]cyclohexyl]oxy}piperidin-1-yl)-2,3-dihydro-1H-1,3-benzodiazol-1-yl]piperidine-2,6-dione] | < 5 nM | > 70%
9 | Cn1cnnc1CC1(c2cccc(-n3cc4c(C(F)(F)F)cc(CN5CCC[C@H](CN6CCN(C[C@H]7CC[C@@H](OC8CCN(c9ccc%10c(c9F)CN(C9CCC(=O)NC9=O)C%10=O)CC8)CC7)CC6(C)C)C5)cc4n3)c2)COC1 (stereo partly drawn) [Example 267, 3-[4-fluoro-1-oxo-5-(4-{[(1r,4r)-4-[(3,3-dimethyl-4-{[(3S)-1-{[2-(3-{3-[(4-methyl-4H-1,2,4-triazol-3-yl)methyl]oxetan-3-yl}phenyl)-4-(trifluoromethyl)-2H-indazol-6-yl]methyl}piperidin-3-yl]methyl}piperazin-1-yl)methyl]cyclohexyl]oxy}piperidin-1-yl)-2,3-dihydro-1H-isoindol-2-yl]piperidine-2,6-dione] | < 5 nM | > 70%
10 | CC(C)n1c(=O)n(C2CCC(=O)NC2=O)c2ccc(N3CCC(O[C@H]4CC[C@@H](CN5CCN(C[C@H]6CCCN(Cc7cc(C(F)(F)F)c8cn(-c9cccc(C%10(Cc%11nncn%11C)COC%10)c9)nc8c7)C6)CC5)CC4)CC3)cc21 (stereo partly drawn) [Example 268, 3-[2-oxo-3-(propan-2-yl)-5-(4-{[(1r,4r)-4-[(4-{[(3S)-1-{[2-(3-{3-[(4-methyl-4H-1,2,4-triazol-3-yl)methyl]oxetan-3-yl}phenyl)-4-(trifluoromethyl)-2H-indazol-6-yl]methyl}piperidin-3-yl]methyl}piperazin-1-yl)methyl]cyclohexyl]oxy}piperidin-1-yl)-2,3-dihydro-1H-1,3-benzodiazol-1-yl]piperidine-2,6-dione] | < 5 nM | > 70%
